Measurements: US10399966B2, “Compounds for treatment of trypanosomes and neurological pathogens and uses thereof” (The University of North Carolina at Chapel Hill, priority 2016, dated 2019)
Where two headings read alike, the source gives them in different places. Marks after values point to notes of the source that are not given here.

What was measured:
human hepatocytes HepG2 = assay: Cytotoxicity against HepG2 cells; conditions: for EC50: Homo sapiens, HepG2, read-out: HepG2 EC50
[1] = test system: human lymphocytes CRL-8155
Method: (§2) The selectivity of each compound for the parasite over each of the two cell lines was calculated.

T. b. brucei TREU667 = assay: Mouse efficacy model of chronic T. brucei infection; type: in vivo; conditions: single intraperitoneal dose 10 mg/kg on day 21
Method: For chronic efficacy, experiments were done in compliance with the University of Washington IACUC approved protocol. According to published procedures, groups of 5 mice were infected with 1×10^4 T. b. brucei (strain TREU667) at day 0 to establish a chronic infection. Treatment began on day 21 post-infection, and mice received 50 mg/kg test compound orally b.i.d. for 10 d (total of 20 doses) in a 200 μL volume of a vehicle composed of Phosal 53 MCT (60%), PEG400 (30%) and EtOH (10%). A control group received vehicle with no compound and another control group received a single intraperitoneal dose of diminazene aceturate at 10 mg/kg in water on day 21. […] Post dosing, parasitemia was monitored via microscopic examination of tail blood slides until 180 days post-infection. Mice were removed from the experiment once parasites were detected in the blood.
In a model of the chronic phase of HAT, compound 1 was administered to five mice infected with T. b. brucei TREU667 at 50 mg/kg/po b.i.d.×10 days, beginning 21 days post-infection. […] Efficacy PK blood samples were collected from three of the five mice prior to dose 15, and at 1 h and 6 h post-dose. […] Compound 1 attained 5/5 cures as determined by the absence of detectable parasitemia in any of the treated mice through 180 days post-infection (FIG. 2). […]

Trypanosoma cruzi = assay: Efficacy against T. cruzi in vitro; type: cell-based; conditions: Trypanosoma cruzi; for EC90: read-out: T.cruzi EC90
[2] = Metabolic stability in mouse liver microsomes; type: in vitro ADME; conditions: for Mouse microsomes, percentage of compound remaining / half-life at 1.5 μM: Table 12; for Mouse microsomes, percentage of compound remaining: after 60 min (where t1/2 > 60 min); for half-life at 1.5 μM: 37° C., NADPH (1 mM), microsomes 0.5 mg/mL, test compounds 1.5 μM, read-out: Mouse microsomes t1/2
Method: (§1) Metabolic stability was evaluated using liver microsomes derived from mouse and human sources. Microsomal incubations were carried out according to a protocol described previously (Wang et al., Antimicrob. Agents Chemother. 54:2507 (2010)) with modifications. Briefly, substrate stock solutions were prepared in DMSO and DMSO content was kept at 0.5% (v/v) in final incubations. Incubation mixtures ([…]), liver microsomes (0.5 mg/mL) from mouse (pool of 1000, CD-1 male mouse) or human (pool of 50, mixed gender) (XenoTech LLC, Lenexa, Kans.) in a phosphate buffer (100 mM, pH 7.4) containing 3.3 mM MgCl2. After a 5-minute pre-equilibration period at 37° C., reactions (in triplicate) were initiated by adding the NADPH cofactor (1 mM). For NADPH-independent reactions, the cofactor was replaced with water. Aliquots (10 μl) of the reaction mixtures were removed at 0, 15, 30, and 60 minutes and individually mixed with 200 μL of ice-cold acetonitrile containing internal standard. The mixtures were vortex-mixed, and precipitated protein was removed by centrifugation at 2,250×g for 15 min. The supernatant fractions were dried using a 96-well microplate evaporator (Apricot Designs Inc., Covina, Calif.) under N2 at 50° C. and reconstituted with 100 μL 50% methanol containing 0.1% trifluoroacetic acid before UPLC-MS/MS analysis. In vitro half-life (t1/2) was obtained by analyzing the substrate concentration vs. incubation time curve using the one-phase exponential decay model (GraphPad Prism® 5.0, San Diego, Calif.).

[3] = Distribution between mouse plasma and brain (brain penetration, ip); type: in vivo; conditions: for [compound]Brain / [compound]Plasma: ± SEM of 3 mice (compound 3: 6 mice); for Kp at 1 h / concentration at 1 h / concentration at 60 min: mouse, 5 mg/kg; for Kp at 1 h: read-out: Average brain/plasma ratio
Outline: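 Mice (n=3) received a single 5 mg/kg ip dose in 7% Tween 80, 3% ethanol, 5% DMSO, 0.9% saline and were sacrificed 1 h post-dose. Plasma and acetonitrile brain homogenates analysed by LC/MS/MS; brain concentration corrected for 2.5% vasculature volume, assuming 1 g = 1 mL.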

T. b. brucei = assay: In vitro antitrypanosomal activity against T. brucei (growth inhibition); type: cell-based, Trypanosoma brucei; conditions: Trypanosoma brucei; for EC90: read-out: T. brucei EC90
Outline: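 Dose-response EC50 against T. brucei parasites with 0.4% DMSO final, 48 h at 37 °C; parasite density quantified by ATP luminescence (CellTiter-Glo).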

[4] = Metabolic stability in human liver microsomes; type: in vitro ADME; conditions: for Human microsomes, percentage of compound remaining / half-life at 1.5 μM: Table 12; for Human microsomes, percentage of compound remaining: after 60 min (where t1/2 > 60 min); for half-life at 1.5 μM: 37° C., NADPH (1 mM), microsomes 0.5 mg/mL, test compounds 1.5 μM, read-out: Human microsomes t1/2
Method: as §1

[5] = Mouse oral pharmacokinetics; type: in vivo; conditions: for percent of the Cmax remaining: mouse oral 50 mg/kg
Method: […] Experiments were performed with groups of three mice per compound. Plasma was separated and extracted with acetonitrile for measurements of compound concentrations by liquid chromatography/tandem mass spectrometry.

[6] = test system: human lymphocytes CRL-8155; assay: Cytotoxicity against CRL-8155 cells; conditions: human lymphoblasts; for EC50: read-out: CRL-8155 EC50, concentration required to inhibit growth by 50%
Method: as §2

in vitro = conditions: human
Method: as §2

[7] = Cytotoxicity against HepG2 cells; conditions: human
[8] = Table 10, read-out: T.cruzi EC50
[9] = male, CD-1, mouse, liver microsomes, pH 7.4
[10] = Table 14, mice, single ip dose 5 mg/kg, one hour post-dose
[11] = Table 8, read-out: T. brucei EC50
[12] = Table 11, read-out: T. b. brucei EC50
[13] = Table 12, read-out: T. b. brucei EC50
[14] = Table 9, read-out: T. brucei EC50
[15] = both sexes, human, liver microsomes, pH 7.4
[16] = Table 13, mice, single 50 mg/kg oral gavage, vehicle Tween 80 (7%), EtOH (3%), DMSO (5%) in 0.9% NaCl, ± SEM of 3 mice, read-out: Cmax
[17] = Table 8, groups of 3 mice (compound 3: ± SEM of 6 mice)

| Structure (SMILES) | EC50 (human hepatocytes HepG2) [nM] | EC50 (Trypanosoma cruzi; [8]) [nM] | EC90 (Trypanosoma cruzi; Table 10) [nM] | Mouse microsomes, percentage of compound remaining [2] [%] | half-life at 1.5 μM [2, 9] [h] | [compound]Brain [3, 10] | [compound]Plasma [3, 10] | EC50 (T. b. brucei; [11]) [nM] | EC50 (T. b. brucei; [12]) [nM] | EC50 (T. b. brucei; [13]) [nM] | EC50 (T. b. brucei; [14]) [nM] | EC90 (T. b. brucei; Table 9) [nM] | melting point [°C] | Human microsomes, percentage of compound remaining [4] [%] | half-life at 1.5 μM [4, 15] [h] | Cmax [5, 16] [µM] | EC50 [6] [nM] | further results |
| --- | --- | --- | --- | --- | --- | --- | --- | --- | --- | --- | --- | --- | --- | --- | --- | --- | --- | --- |
| CCN(CC)CCCC(C)Nc1c2ccc(Cl)cc2nc2ccc(OC)cc12 (stereo not drawn) [quinacrine, reference compound] | 10400 |  |  |  |  |  |  |  |  |  |  |  |  |  |  |  |  | EC90 (human hepatocytes HepG2; human): 18200 nM; EC90 [1]: 9940 nM |
| N=C(N)c1ccc(/N=N/Nc2ccc(C(=N)N)cc2)cc1 [diminazene aceturate, reference compound] |  |  |  |  |  |  |  |  |  |  |  |  |  |  |  |  |  | parasitemia outcome (in words) (T. b. brucei TREU667): temporary clearance of parasitemia, but subsequently relapsed |
| O=C(Nc1ccc2sc(-c3ccc(F)c(F)c3)nc2c1)N1C[C@@H](F)[C@H](F)C1 [Compound 35, (3R,4R)-2-(3,4-Difluorophenyl)-5-(3,4-difluoro-N-pyrrolidylamido)benzothiazole] | > 50000 | 562 | 652 | 67 | > 1 | 16.2 ± 2.88 µM | 2.19 ± 0.424 µM | 114 | 114 | 114 | 114 | 747 | 217 to 218 | 96 | > 1 | 11 ± 0.58 | 27100 | EC90 (human hepatocytes HepG2; read-out: HepG2 EC90, concentration required to inhibit growth by 90%, human hepatocytes): > 50000 nM; Brain/plasma ratio [3, 10]: 7.71 ± 1.63; Kp at 1 h ([3]; brain and plasma, intraperitoneal, Table 8, groups of 3 mice): 7.71 ± 1.63; concentration at 1 h ([3]; brain, intraperitoneal, Table 8, groups of 3 mice (compound 3: ± SEM of 6 mice), read-out: Average [compound] brain): 16.2 ± 2.88 µM; concentration at 1 h ([3]; plasma, intraperitoneal, Table 8, groups of 3 mice (compound 3: ± SEM of 6 mice), read-out: Average [compound] plasma): 2.19 ± 0.424 µM; AUC0 min-∞ ([5]; Table 13, mice, single 50 mg/kg oral gavage, vehicle Tween 80 (7%), EtOH (3%), DMSO (5%) in 0.9% NaCl, ± SEM of 3 mice): 13515 ± 224.6 µM·min; percent of the Cmax remaining ([5]; 24 h time point): 34%; percent of the Cmax remaining ([5]; 32 h time point): > 17%; EC90 ([6]; read-out: CRL-8155 EC90, concentration required to inhibit growth by 90%): > 50000 nM |
| O=C(Nc1ccc2sc(-c3ccc(F)c(F)c3)nc2c1)N1CCC(F)C1 (racemic) [Compound 3, 2-(3,4-Difluorophenyl)-5-(3-fluoro-N-pyrrolidylamido)benzothiazole] | > 50000 | 177 | 525 | 52 | > 1 | 5.48 ± 0.683^b μM | 3.26 ± 0.630^b μM | 51.9 | 51.9 | 51.9 | 51.9 | 91.9 | 209 to 210 | 99 | > 1 | 10 ± 0.65 | > 50000 | EC50 (Trypanosoma cruzi; Table 6, read-out: T. cruzi EC50): 91.9 nM; half-life at 3 μM ([2]; male, CD-1, mouse, liver microsomes, pH 7.4, Table 5, read-out: Microsome t1/2 (min) Mouse): 60 min; EC90 (in vitro): > 50000 nM; EC90 [7]: > 50000 nM; Average [compound] brain [3, 17]: 5.48 ± 0.683^a μM; Average [compound] plasma [3, 17]: 3.26 ± 0.630^a μM; Kp at 1 h ([3]; in vivo, Table 5, mouse brain penetration (60 min), n = 3): 1.52 ± 0.0416; concentration at 60 min ([3]; in vivo, Table 5 r15, mouse brain penetration (60 min), n = 3): 2.78 ± 0.652 µM; concentration at 60 min ([3]; in vivo, Table 5 r17 (second line so headed), mouse brain penetration (60 min), n = 3): 4.22 ± 0.974 µM; Kp at 1 h ([3]; in vivo, Table 8, groups of 3 mice): 2.11 ± 0.669; EC50 (T. b. brucei; Table 6, read-out: T. brucei EC50): 51.9 nM; half-life at 3 μM ([4]; both sexes, human, liver microsomes, pH 7.4, Table 5, read-out: Microsome t1/2 (min) Human): > 60 min; Mouse oral PK Tlast ([5]; Table 5): 480 min; Mouse oral PK Average AUC ([5]; Table 5, n = 3): 3847 ± 466 (n = 3) min * μmol/L; Cmax ([5]; mouse, plasma, po, 50 mg/kg, Table 5, n = 3, read-out: Mouse oral PK Average Cmax): 10 ± 1.1 µM; Tmax ([5]; mouse, plasma, po, 50 mg/kg, Table 5, read-out: Mouse oral PK Tmax (converted)): 1 h |
